Literature values in patent US9345804B2, “S-nitrosothiol-generating skin dressings” (Insense Limited, priority 2007, dated 2016).

Key:
[1] = at 25° C.
[2] = under normal conditions

Compound	pKa [1]	time to almost complete decomposition [2]
O=NO [nitrite]	3.4	
nitrosoglycerol		hours/days
